Assay results: patent publication US20060178435A1, “Apogossypolone and the uses thereof” (The Regents of the University of Michigan, priority 2004, published 2006)
Where two headings read alike, the source gives them in different places.

Columns and labels:
[1] = system: PC-3 prostate cancer cell line; experiment: Inhibition of cell growth, MTT assay, PC-3; format: cell-based, human; conditions: for potency relative to (−)-gossypol in inhibition of cell growth: PC-3 cell line, 3-5 independent experiments
Procedure: (§1) A direct comparison of (−)-gossypol, apogossypol and apogossypolone for their activity in inhibition of cell growth in PC-3 and LnCap prostate cancer cell lines was carried out.

recombinant human Bcl-2 = recombinant human Bcl-2 (Homo sapiens, UniProt P10415); experiment: Fluorescence polarization binding assay for Bcl-2 (Bid-FAM peptide displacement)
[2] = biological target: T1, human Mcl-1 protein (amino acids 171-327) (Homo sapiens, UniProt Q07820); experiment: Fluorescence polarization binding assay for the Mcl-1 protein (Flu-Bid-21 probe)
T1 construct: The fragment encoding amino acids 171-327 was cloned into the pHis-TEV vector; 8xHis (N); made in house; host or cells: E. coli BL21(DE3)

[3] = system: LnCap prostate cancer cell line; experiment: Inhibition of cell growth, MTT assay, LnCap; format: cell-based; conditions: read-out: IC50, inhibition of cell growth
Procedure: as §1

[4] = Maximal tolerated dose (MTD) in mice; format: in vivo; conditions: for MTD: mouse, in vivo
Procedure: To confirm this prediction, the maximal tolerated dose (MTD) of apogossypolone and (−)-gossypol was evaluated in mice using two different routes of administrations (oral and intravenous). For oral administration (oral gavage 5 days/week), the MTD of apogossypolone was above 240 mg/kg while the MTD for (−)-gossypol was about 50 mg/kg. For intravenous administration (every other day and 3 days/week), the MTD of apogossypolone was about 80 mg/kg while the MTD for (−)-gossypol was about 10 mg/kg. In both routes of administration, the MTD of apogossypolone was 8-times better than (−)-gossypol.

[5] = system: T47D breast cancer cell line; experiment: Cell growth inhibition, T47D; format: cell-based, human
Procedure: as §1
(§2) Additional cell growth inhibition studies were performed using the MDA-MB-231 (subclone 2LMP), T47D, and MDA-MB-435 breast cancer cell lines. Racemic gossypol, apogossypol, apogossypolone, (+)-apogossypol, (−)-apogossypol, and tetra-acetyl apogossypolone (Formula VIII) were tested as described above.

[6] = system: MDA-MB-435 breast cancer cell line; experiment: Cell growth inhibition, MDA-MB-435; format: cell-based, human
Procedure: as §1, §2

recombinant human Bcl-xL = biological target: T2, recombinant human Bcl-xL (Homo sapiens, UniProt Q07817); experiment: Fluorescence polarization binding assay for Bcl-xL (Bak-Flu peptide displacement)
T2 construct: fused to a His-tag without the C-terminus hydrophobic tail; His-tag
Text: Fluorescence polarization (FP)-based binding assays for Bcl-2 and Bcl-xL were developed and optimized using recombinant human Bcl-2 and Bcl-xL proteins, a Bid BH3 peptide labeled with 6-carboxyfluorescein succinimidyl ester (FAM) and Bak BH3 peptide labeled with 6-(fluorescein-5(6)-carboxamido) hexanoic acid (Flu). The FP-based binding assays measure the ability of an inhibitor to displace either Bid-FAM or Bak-Flu peptide from Bcl-2 or Bcl-xL protein, respectively. The dose-dependent binding experiments were carried out with serial dilutions of the tested compounds in DMSO. For the Bcl-2 binding assay, a 5 μl sample of the inhibitor and preincubated recombinant His-fused soluble Bcl-2 protein (120 nM) with Bid-FAM peptide (10 nM) in the assay buffer (100 mM potassium phosphate, pH 7.5; 100 μg/ml bovine gamma globulin; 0.02% sodium azide, purchased from Invitrogen, Life Technologies), were added in Dynex 96-well, black, round-bottom plates (Fisher Scientific), to produce a final volume of 125 μl. […] The polarization values were measured after 3-4 hr incubation, using an ULTRA READER (Tecan U.S. Inc., Research Triangle Park, N.C.). The Ki value was calculated using a modified Cheng-Prusoff equation based upon the Kd value for the Bid-FAM peptide to Bcl-2, the measured IC50 value, and the concentrations of the protein and Bid-FAM. […]

PC-3 xenografts = experiment: Antitumor activity in PC-3 xenograft model, alone or with X-ray irradiation; format: in vivo, nude mice; conditions: for complete tumor regression: Day 57
Procedure: An in vivo study of apogossypolone was carried out using a PC-3 xenograft model in nude mice to evaluate the antitumor activity of apogossypolone alone or in combination with X-ray irradiation. Nude mice with established PC-3 xenografts (150 mm^3 in size) were treated with (1) apogossypolone 200 mg/kg p.o. q.d. 5×4 weeks; (2) fractionated X-ray irradiation to the tumor only, with the animal body shielded, at a dose of 2 Gy q.d. 5×3 weeks, total 30 Gy; and (3) a combination of apogossypolone and radiation.

[7] = system: MDA-MB-231 (subclone 2LMP) breast cancer cell line; experiment: Cell growth inhibition, MDA-MB-231 (subclone 2LMP); format: cell-based, human; conditions: for fold more potent than gossypol: MDA-MB-231 cell line
Procedure: as §1, §2

[8] = Storage stability of the sample; format: physicochemical
[9] = Homo sapiens, PC-3 cells, 4-6 day MTT assay, read-out: IC50, inhibition of cell growth
[10] = FP-based binding assay, Ki calculated from IC50 with modified Cheng-Prusoff equation, read-out: Ki
[11] = intravenous, every other day and 3 days/week
[12] = Homo sapiens, T47D, read-out: IC50 (μM) T47D
[13] = Homo sapiens, MDA-MB-435, read-out: IC50 (μM) MDA-MB-435
[14] = Homo sapiens, MDA-MB-231, read-out: IC50 (μM) MDA-MB-231
[15] = MDA-MB-435; read-out: IC50 (μM) MDA-MB-435
[16] = MDA-MB-231 (subclone 2LMP), read-out: IC50 (μM) MDA-MB-231

Chain of recombinant human Bcl-2 (P10415 92-205 limits assumed): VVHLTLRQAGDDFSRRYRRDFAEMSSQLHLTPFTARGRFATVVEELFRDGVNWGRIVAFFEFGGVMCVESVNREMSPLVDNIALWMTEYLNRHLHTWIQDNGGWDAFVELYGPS
T1 sequence (Q07820 171-327): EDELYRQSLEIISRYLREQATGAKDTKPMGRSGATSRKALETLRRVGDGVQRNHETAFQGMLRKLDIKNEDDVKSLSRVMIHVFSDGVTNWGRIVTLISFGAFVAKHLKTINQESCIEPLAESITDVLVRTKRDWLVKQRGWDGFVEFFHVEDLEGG
T2 sequence (Q07817 1-209 limits assumed): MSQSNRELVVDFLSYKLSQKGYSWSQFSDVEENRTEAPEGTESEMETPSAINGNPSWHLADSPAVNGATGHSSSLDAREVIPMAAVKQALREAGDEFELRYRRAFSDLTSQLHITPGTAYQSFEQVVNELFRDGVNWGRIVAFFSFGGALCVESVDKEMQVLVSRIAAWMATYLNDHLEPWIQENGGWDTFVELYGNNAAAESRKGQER

CC1=C(C2=C(C)C(=O)c3c(c(C(=O)O)c(O)c(O)c3C(C)C)C2=O)C(=O)c2c(C(=O)O)c(O)c(O)c(C(C)C)c2C1=O [gossypolonic acid]
IC50 [1, 9]: > 10000 nM
Ki (recombinant human Bcl-2; [10]): 280 nM

CC[C@H](C)[C@H](NC(=O)[C@H](CC(N)=O)NC(=O)[C@H](CCCN=C(N)N)NC(=O)[C@@H](NC(=O)[C@@H](NC(=O)[C@H](CC(=O)O)NC(=O)[C@H](CCC(=O)O)NC(=O)[C@@H](N)CCC(N)=O)[C@@H](C)CC)[C@@H](C)CC)C(=O)N[C@@H](C)C(=O)N[C@@H](CCCN=C(N)N)C(=O)N[C@@H](Cc1c[nH]cn1)C(=O)N[C@@H](CC(C)C)C(=O)N[C@@H](C)C(=O)N[C@@H](CCC(N)=O)C(=O)N[C@H](C(=O)NCC(=O)N[C@@H](CC(=O)O)C(=O)N[C@@H](CO)C(=O)N[C@@H](CCSC)C(=O)N[C@@H](CC(=O)O)C(=O)N[C@@H](CCCN=C(N)N)C(=O)O)C(C)C [unlabeled Bid 21mer peptide]
Ki [2]: 5.7 ± 1.1 nM

Cc1cc2c(C(C)C)c(O)c(O)c(C=O)c2c(O)c1-c1c(C)cc2c(C(C)C)c(O)c(O)c(C=O)c2c1O [(−)-gossypol, reference compound]
IC50 ([3]; LnCap cell line): 4700 nM
IC50 ([1]; PC-3 cells, 4-6 day MTT assay, read-out: IC50, inhibition of cell growth): 6500 nM
maximal tolerated dose (MTD) [4, 11]: about 10 mg/kg
maximal tolerated dose (MTD) ([4]; oral gavage 5 days/week): about 50 mg/kg
Ki ([2]; FP competitive binding, unit inferred, read-out: Ki to Mcl-1): 180 ± 10 nM

CC1=C(C2=C(C)C(=O)c3c(cc(O)c(O)c3C(C)C)C2=O)C(=O)c2cc(O)c(O)c(C(C)C)c2C1=O (racemic) [apogossypolone, 6,7,6′,7′-Tetrahydroxy-5,5′-diisopropyl-3,3′-dimethyl-[2,2′]binaphthalenyl-1,4,1′,4′-tetraone]
IC50 [5, 12]: 9.26 µM
fold more potent than gossypol ([5]; T47D cell line): about 2 fold
IC50 [6, 13]: 4.82 µM
fold more potent than gossypol ([6]; MDA-MB-435 cell line): about 2 fold
Ki (recombinant human Bcl-xL): 1270 nM
IC50 ([3]; Homo sapiens, LNCaP): 1300 nM
IC50 ([1]; Homo sapiens, PC-3, read-out: IC50, inhibition of cell growth): 2200 nM
potency relative to (−)-gossypol in inhibition of cell growth [1]: 3-4 times
MTD relative to (−)-gossypol ([4]; both routes of administration): 8 times
MTD [4, 11]: ~80 mg/kg
MTD ([4]; oral gavage 5 days/week): > 240 mg/kg
Ki (recombinant human Bcl-2): 76 nM
complete tumor regression (PC-3 xenografts; apogossypolone 200 mg/kg p.o. plus X-ray radiation 2 Gy q.d. 5×3 weeks): seven out of ten
complete tumor regression (PC-3 xenografts; apogossypolone alone, 200 mg/kg p.o.): zero out of ten
effect on the tumors (PC-3 xenografts; apogossypolone alone, 200 mg/kg p.o. q.d. 5×4 weeks): limited effect
enhancement of radiation-mediated tumor inhibition (PC-3 xenografts; combination with X-ray radiation, P<0.0001, two-way ANOVA, n=10): significantly enhanced
Ki [2]: 51 ± 20 nM
fold better binding affinity compared with (−)-gossypol ([2]; Mcl-1): 3.5 fold
IC50 [7, 14]: 1.27 µM
fold more potent than gossypol [7]: about 9 fold
decomposition on storage ([8]; stored at room temperature for several weeks without the protection of nitrogen): no decomposition was detected

Cc1cc2c(C(C)C)c(O)c(O)c(C=O)c2c(O)c1-c1c(C)cc2c(C(C)C)c(O)c(O)c(C=O)c2c1O (racemic) [(±)-Gossypol, gossypol]
IC50 [5, 12]: 16.3 µM
IC50 [6, 13]: 11.4 µM
IC50 [7, 14]: 11.1 µM

Cc1cc2c(C(C)C)c(O)c(O)cc2c(O)c1-c1c(C)cc2c(C(C)C)c(O)c(O)cc2c1O [apogossypol]
IC50 [5, 12]: 6.51 µM
fold more potent than gossypol ([5]; T47D cell line): about 2.5 fold
IC50 [6, 13]: 3.39 µM
fold more potent than gossypol ([6]; MDA-MB-435 cell line): about 3 fold
potency relative to (−)-gossypol in inhibition of cell growth [1]: as potent as (−)-gossypol
Ki (recombinant human Bcl-2): 200 nM
IC50 [7, 14]: 2.37 µM
fold more potent than gossypol [7]: about 5 fold
time in which the sample decomposed ([8]; stored at −20° C. and under nitrogen): ≤ 1 week

CC(=O)Oc1cc2c(c(C(C)C)c1OC(C)=O)C(=O)C(C)=C(C1=C(C)C(=O)c3c(cc(OC(C)=O)c(OC(C)=O)c3C(C)C)C1=O)C2=O [Tetra acetyl apogossypolone, tetra-acetyl apogossypolone]
IC50 ([5]; Homo sapiens, T47D; read-out: IC50 (μM) T47D): 6.33 µM
IC50 ([6]; Homo sapiens, MDA-MB-435; read-out: IC50 (μM) MDA-MB-435): 6.29 µM
IC50 ([7]; Homo sapiens, MDA-MB-231 (subclone 2LMP), read-out: IC50 (μM) MDA-MB-231): 1.32 µM

Cc1cc2c(C(C)C)c(O)c(O)cc2c(O)c1-c1c(C)cc2c(C(C)C)c(O)c(O)cc2c1O [(+)-Apogossypol, (+)-apogossypol]
IC50 ([5]; T47D; read-out: IC50 (μM) T47D): 14 µM
IC50 [6, 15]: 7.28 µM
IC50 [7, 16]: 8.81 µM

Cc1cc2c(C(C)C)c(O)c(O)c(C(=O)O)c2c(O)c1-c1c(C)cc2c(C(C)C)c(O)c(O)c(C(=O)O)c2c1O [gossypolic acid]
IC50 [1, 9]: > 10000 nM
Ki (recombinant human Bcl-2; [10]): 120 nM

Cc1cc2c(C(C)C)c(O)c(O)cc2c(O)c1-c1c(C)cc2c(C(C)C)c(O)c(O)cc2c1O [(−)-Apogossypol, (−)-apogossypol]
IC50 ([5]; T47D; read-out: IC50 (μM) T47D): 4.26 µM
IC50 [6, 15]: 3.13 µM
IC50 [7, 16]: 2.31 µM

CC[C@H](C)[C@H](NC(=O)[C@H](CC(N)=O)NC(=O)[C@H](CCCNC(=N)N)NC(=O)[C@@H](NC(=O)[C@@H](NC(=O)[C@H](CC(=O)O)NC(=O)[C@H](CCC(=O)O)NC(=O)[C@H](CCC(N)=O)NC(=O)c1ccc2c(c1)C1(OC2=O)c2ccc(O)cc2Oc2cc(O)ccc21)[C@@H](C)CC)[C@@H](C)CC)C(=O)N[C@@H](C)C(=O)N[C@@H](CCCNC(=N)N)C(=O)N[C@@H](Cc1c[nH]cn1)C(=O)N[C@@H](CC(C)C)C(=O)N[C@@H](C)C(=O)N[C@@H](CCC(N)=O)C(=O)N[C@H](C(=O)NCC(=O)N[C@@H](CC(=O)O)C(=O)N[C@@H](CO)C(=O)N[C@@H](CCSC)C(=O)N[C@@H](CC(=O)O)C(=O)N[C@@H](CCCNC(=N)N)C(=O)O)C(C)C [Flu-Bid-21]
Kd ([2]; probe concentration 0.5 nM, read-out: apparent Kd for Mcl-1): 0.7 nM
Kd ([2]; probe concentration 1 nM, saturation experiment, read-out: Kd for Mcl-1): 0.83 nM
Kd ([2]; probe concentration 2.5 nM, read-out: apparent Kd for Mcl-1): 1.05 nM
Kd ([2]; probe concentration 5 nM, read-out: apparent Kd for Mcl-1): 1.32 nM
